Assay results taken from paper PMC9516332 (Frontiers in Oncology, 2022).
Where two headings read alike, the source gives them in different places.

What was measured:
134 cancer cell lines = experiment: Cell viability assay (ATPlite, 72 hours), IC50 on cancer cell line panel
AP-1060 (ETV6-NTRK3) = experiment: Cell viability assay; details: read-out: IC50 in cell proliferation assay

C=CC(=O)N1CCC([C@@H]2CCNc3c(C(N)=O)c(-c4ccc(Oc5ccccc5)cc4)nn32)CC1 [zanubrutinib]
IC50 (134 cancer cell lines; HEC-6, read-out: IC50 in cell proliferation assay): 0.355 µM | IC50 (134 cancer cell lines; Homo sapiens, 769-P, read-out: IC50 in cell proliferation assay): 4.48 µM | IC50 (134 cancer cell lines; Homo sapiens, 786-0, read-out: IC50 in cell proliferation assay): 2.19 µM | IC50 (134 cancer cell lines; Homo sapiens, A 172, read-out: IC50 in cell proliferation assay): > 31.6 µM | IC50 (134 cancer cell lines; Homo sapiens, A204, read-out: IC50 in cell proliferation assay): 27.9 µM | IC50 (134 cancer cell lines; Homo sapiens, A498, read-out: IC50 in cell proliferation assay): 5.51 µM | IC50 (134 cancer cell lines; Homo sapiens, A549, read-out: IC50 in cell proliferation assay): 24.7 µM | IC50 (134 cancer cell lines; Homo sapiens, A704, read-out: IC50 in cell proliferation assay): > 31.6 µM | IC50 (134 cancer cell lines; Homo sapiens, A-375, read-out: IC50 in cell proliferation assay): > 31.6 µM | IC50 (134 cancer cell lines; Homo sapiens, A-427, read-out: IC50 in cell proliferation assay): 8.55 µM | IC50 (134 cancer cell lines; Homo sapiens, ACHN, read-out: IC50 in cell proliferation assay): 2.75 µM | IC50 (134 cancer cell lines; Homo sapiens, AN3-CA, read-out: IC50 in cell proliferation assay): 29.8 µM | IC50 (134 cancer cell lines; Homo sapiens, ASPC1, read-out: IC50 in cell proliferation assay): 7.83 µM | IC50 (134 cancer cell lines; Homo sapiens, AU565, read-out: IC50 in cell proliferation assay): 0.303 µM | IC50 (134 cancer cell lines; Homo sapiens, BT-20, read-out: IC50 in cell proliferation assay): 15.1 µM | IC50 (134 cancer cell lines; Homo sapiens, BT-474, read-out: IC50 in cell proliferation assay): 0.213 µM | IC50 (134 cancer cell lines; Homo sapiens, BT-549, read-out: IC50 in cell proliferation assay): 12 µM | IC50 (134 cancer cell lines; Homo sapiens, BXPC-3, read-out: IC50 in cell proliferation assay): 3.04 µM | IC50 (134 cancer cell lines; Homo sapiens, C-33-A, read-out: IC50 in cell proliferation assay): 1.1 µM | IC50 (134 cancer cell lines; Homo sapiens, CAL-27, read-out: IC50 in cell proliferation assay): 1.37 µM | IC50 (134 cancer cell lines; Homo sapiens, CCF-STTG1, read-out: IC50 in cell proliferation assay): > 31.6 µM | IC50 (134 cancer cell lines; Homo sapiens, CCRF-CEM, read-out: IC50 in cell proliferation assay): 13.2 µM | IC50 (134 cancer cell lines; Homo sapiens, COLO 205, read-out: IC50 in cell proliferation assay): > 31.6 µM | IC50 (134 cancer cell lines; Homo sapiens, COLO-829, read-out: IC50 in cell proliferation assay): > 31.6 µM | IC50 (134 cancer cell lines; Homo sapiens, DLD-1, read-out: IC50 in cell proliferation assay): > 31.6 µM | IC50 (134 cancer cell lines; Homo sapiens, DU-145, read-out: IC50 in cell proliferation assay): 1.05 µM | IC50 (134 cancer cell lines; Homo sapiens, DU-4475, read-out: IC50 in cell proliferation assay): 18.1 µM | IC50 (134 cancer cell lines; Homo sapiens, Daoy, read-out: IC50 in cell proliferation assay): 23.4 µM | IC50 (134 cancer cell lines; Homo sapiens, DoTc2-4510, read-out: IC50 in cell proliferation assay): 1.5 µM | IC50 (134 cancer cell lines; Homo sapiens, EOL1, read-out: IC50 in cell proliferation assay): 2.74 µM | IC50 (134 cancer cell lines; Homo sapiens, FaDu, read-out: IC50 in cell proliferation assay): 0.751 µM | IC50 (134 cancer cell lines; Homo sapiens, G-361, read-out: IC50 in cell proliferation assay): 31.4 µM | IC50 (134 cancer cell lines; Homo sapiens, HCC827, read-out: IC50 in cell proliferation assay): 1.33 µM | IC50 (134 cancer cell lines; Homo sapiens, HCC4006, read-out: IC50 in cell proliferation assay): 1.36 µM | IC50 (134 cancer cell lines; Homo sapiens, HCT-15, read-out: IC50 in cell proliferation assay): 15.7 µM | IC50 (134 cancer cell lines; Homo sapiens, HCT-116, read-out: IC50 in cell proliferation assay): > 31.6 µM | IC50 (134 cancer cell lines; Homo sapiens, HEC-1, read-out: IC50 in cell proliferation assay): > 31.6 µM | IC50 (134 cancer cell lines; Homo sapiens, HEC-1B, read-out: IC50 in cell proliferation assay): 5.59 µM | IC50 (134 cancer cell lines; Homo sapiens, HL-60, read-out: IC50 in cell proliferation assay): > 31.6 µM | IC50 (134 cancer cell lines; Homo sapiens, HT, read-out: IC50 in cell proliferation assay): > 31.6 µM | IC50 (134 cancer cell lines; Homo sapiens, HT-1080, read-out: IC50 in cell proliferation assay): > 31.6 µM | IC50 (134 cancer cell lines; Homo sapiens, Hs746T, read-out: IC50 in cell proliferation assay): > 31.6 µM | IC50 (134 cancer cell lines; Homo sapiens, Hs-578T, read-out: IC50 in cell proliferation assay): 28.4 µM | IC50 (134 cancer cell lines; Homo sapiens, HuTu80, read-out: IC50 in cell proliferation assay): 0.961 µM | IC50 (134 cancer cell lines; Homo sapiens, J82, read-out: IC50 in cell proliferation assay): > 31.6 µM | IC50 (134 cancer cell lines; Homo sapiens, Jurkat E6.1, read-out: IC50 in cell proliferation assay): 19.1 µM | IC50 (134 cancer cell lines; Homo sapiens, K562, read-out: IC50 in cell proliferation assay): > 31.6 µM | IC50 (134 cancer cell lines; Homo sapiens, KATO III, read-out: IC50 in cell proliferation assay): 5.47 µM | IC50 (134 cancer cell lines; Homo sapiens, KG-1, read-out: IC50 in cell proliferation assay): 2.85 µM | IC50 (134 cancer cell lines; Homo sapiens, KLE, read-out: IC50 in cell proliferation assay): 2.73 µM | IC50 (134 cancer cell lines; Homo sapiens, KMS-11, read-out: IC50 in cell proliferation assay): 22.6 µM | IC50 (134 cancer cell lines; Homo sapiens, KU812, read-out: IC50 in cell proliferation assay): 12.3 µM | IC50 (134 cancer cell lines; Homo sapiens, Kasumi 1, read-out: IC50 in cell proliferation assay): 3.36 µM | IC50 (134 cancer cell lines; Homo sapiens, LC-2-ad, read-out: IC50 in cell proliferation assay): 16.5 µM | IC50 (134 cancer cell lines; Homo sapiens, LNCaP-Clone-FGC, read-out: IC50 in cell proliferation assay): 13.7 µM | IC50 (134 cancer cell lines; Homo sapiens, LS174T, read-out: IC50 in cell proliferation assay): 11.5 µM | IC50 (134 cancer cell lines; Homo sapiens, LS-411N, read-out: IC50 in cell proliferation assay): 12.4 µM | IC50 (134 cancer cell lines; Homo sapiens, LoVo, read-out: IC50 in cell proliferation assay): 24.9 µM | IC50 (134 cancer cell lines; Homo sapiens, MCF7, read-out: IC50 in cell proliferation assay): > 31.6 µM | IC50 (134 cancer cell lines; Homo sapiens, MDA-MB-231, read-out: IC50 in cell proliferation assay): > 31.6 µM | IC50 (134 cancer cell lines; Homo sapiens, MDA-MB-453, read-out: IC50 in cell proliferation assay): 4.19 µM | IC50 (134 cancer cell lines; Homo sapiens, MDA-MB-468, read-out: IC50 in cell proliferation assay): 3.9 µM | IC50 (134 cancer cell lines; Homo sapiens, MG-63, read-out: IC50 in cell proliferation assay): 29.3 µM | IC50 (134 cancer cell lines; Homo sapiens, MIA PaCa-2, read-out: IC50 in cell proliferation assay): > 31.6 µM | IC50 (134 cancer cell lines; Homo sapiens, MKN-45, read-out: IC50 in cell proliferation assay): > 31.6 µM | IC50 (134 cancer cell lines; Homo sapiens, MOLM-13, read-out: IC50 in cell proliferation assay): 2.06 µM | IC50 (134 cancer cell lines; Homo sapiens, MOLT-4, read-out: IC50 in cell proliferation assay): 16.5 µM | IC50 (134 cancer cell lines; Homo sapiens, MV4-11, read-out: IC50 in cell proliferation assay): 3.72 µM | IC50 (134 cancer cell lines; Homo sapiens, MeWo, read-out: IC50 in cell proliferation assay): > 31.6 µM | IC50 (134 cancer cell lines; Homo sapiens, NCCIT, read-out: IC50 in cell proliferation assay): 11.4 µM | IC50 (134 cancer cell lines; Homo sapiens, NCI-H82, read-out: IC50 in cell proliferation assay): > 31.6 µM | IC50 (134 cancer cell lines; Homo sapiens, NCI-H460, read-out: IC50 in cell proliferation assay): > 31.6 µM | IC50 (134 cancer cell lines; Homo sapiens, NCI-H661, read-out: IC50 in cell proliferation assay): 0.612 µM | IC50 (134 cancer cell lines; Homo sapiens, NCI-H716, read-out: IC50 in cell proliferation assay): 11.7 µM | IC50 (134 cancer cell lines; Homo sapiens, NCI-H1650, read-out: IC50 in cell proliferation assay): 13.9 µM | IC50 (134 cancer cell lines; Homo sapiens, NCI-H1975, read-out: IC50 in cell proliferation assay): 4.6 µM | IC50 (134 cancer cell lines; Homo sapiens, NCI-H2228, read-out: IC50 in cell proliferation assay): > 31.6 µM | IC50 (134 cancer cell lines; Homo sapiens, OVCAR-3, read-out: IC50 in cell proliferation assay): 1.53 µM | IC50 (134 cancer cell lines; Homo sapiens, PFSK-1, read-out: IC50 in cell proliferation assay): 18 µM | IC50 (134 cancer cell lines; Homo sapiens, RL95-2, read-out: IC50 in cell proliferation assay): 1.17 µM | IC50 (134 cancer cell lines; Homo sapiens, RPMI-7951, read-out: IC50 in cell proliferation assay): > 31.6 µM | IC50 (134 cancer cell lines; Homo sapiens, RS4-11, read-out: IC50 in cell proliferation assay): 26.5 µM | IC50 (134 cancer cell lines; Homo sapiens, SHP77, read-out: IC50 in cell proliferation assay): > 31.6 µM | IC50 (134 cancer cell lines; Homo sapiens, SK-BR-3, read-out: IC50 in cell proliferation assay): 0.141 µM | IC50 (134 cancer cell lines; Homo sapiens, SK-N-AS, read-out: IC50 in cell proliferation assay): 15.5 µM | IC50 (134 cancer cell lines; Homo sapiens, SK-N-FI, read-out: IC50 in cell proliferation assay): > 31.6 µM | IC50 (134 cancer cell lines; Homo sapiens, SK-N-MC, read-out: IC50 in cell proliferation assay): 23.1 µM | IC50 (134 cancer cell lines; Homo sapiens, SK-N-SH, read-out: IC50 in cell proliferation assay): > 31.6 µM | IC50 (134 cancer cell lines; Homo sapiens, SNU-5, read-out: IC50 in cell proliferation assay): 8.94 µM | IC50 (134 cancer cell lines; Homo sapiens, SNU-16, read-out: IC50 in cell proliferation assay): 8.54 µM | IC50 (134 cancer cell lines; Homo sapiens, SNU-C2B, read-out: IC50 in cell proliferation assay): 0.866 µM | IC50 (134 cancer cell lines; Homo sapiens, SU-DHL-1, read-out: IC50 in cell proliferation assay): 16.8 µM | IC50 (134 cancer cell lines; Homo sapiens, SU-DHL-6, read-out: IC50 in cell proliferation assay): 0.00375 µM | IC50 (134 cancer cell lines; Homo sapiens, SUP-T1, read-out: IC50 in cell proliferation assay): 17.5 µM | IC50 (134 cancer cell lines; Homo sapiens, SW48, read-out: IC50 in cell proliferation assay): 0.043 µM | IC50 (134 cancer cell lines; Homo sapiens, SW480, read-out: IC50 in cell proliferation assay): 9.56 µM | IC50 (134 cancer cell lines; Homo sapiens, SW626, read-out: IC50 in cell proliferation assay): 2.71 µM | IC50 (134 cancer cell lines; Homo sapiens, SW780, read-out: IC50 in cell proliferation assay): 5.82 µM | IC50 (134 cancer cell lines; Homo sapiens, SW837, read-out: IC50 in cell proliferation assay): 6 µM | IC50 (134 cancer cell lines; Homo sapiens, SW872, read-out: IC50 in cell proliferation assay): > 31.6 µM | IC50 (134 cancer cell lines; Homo sapiens, SW900, read-out: IC50 in cell proliferation assay): 5.84 µM | IC50 (134 cancer cell lines; Homo sapiens, SW948, read-out: IC50 in cell proliferation assay): > 31.6 µM | IC50 (134 cancer cell lines; Homo sapiens, SW982, read-out: IC50 in cell proliferation assay): > 31.6 µM | IC50 (134 cancer cell lines; Homo sapiens, SW-620, read-out: IC50 in cell proliferation assay): 4.75 µM | IC50 (134 cancer cell lines; Homo sapiens, T98G, read-out: IC50 in cell proliferation assay): > 31.6 µM | IC50 (134 cancer cell lines; Homo sapiens, TCC-SUP, read-out: IC50 in cell proliferation assay): > 31.6 µM | IC50 (134 cancer cell lines; Homo sapiens, THP-1, read-out: IC50 in cell proliferation assay): > 31.6 µM | IC50 (134 cancer cell lines; Homo sapiens, U2OS, read-out: IC50 in cell proliferation assay): 10.7 µM | IC50 (134 cancer cell lines; Homo sapiens, U-87 MG, read-out: IC50 in cell proliferation assay): > 31.6 µM | IC50 (134 cancer cell lines; Homo sapiens, U-118-MG, read-out: IC50 in cell proliferation assay): > 31.6 µM | IC50 (134 cancer cell lines; Homo sapiens, UMUC3, read-out: IC50 in cell proliferation assay): 24.1 µM | IC50 (134 cancer cell lines; Hs766T, read-out: IC50 in cell proliferation assay): > 31.6 µM | IC50 (134 cancer cell lines; L-82, read-out: IC50 in cell proliferation assay): 17.6 µM | IC50 (134 cancer cell lines; Rh30, read-out: IC50 in cell proliferation assay): 17.4 µM | IC50 (AP-1060 (ETV6-NTRK3)): > 31.6 µM
